Laboratory results: patent US8119695B2, “Compounds and methods for treating breast cancer and other diseases” (City of Hope, priority 2003, dated 2012)
Where two headings read alike, the source gives them in different places. Values belong to the compound of their own block, whether it stands above or below them.

Assays:
Assay type in all cases: cell-based
MH100x4 = MH100x4 luciferase reporter without receptor
Excerpt: (§1) MH100x4 is a luciferase reporter with four copies of a GAL4 […] response element. GAL-L refers to the ligand-binding domain of the indicated receptor fused to the C-terminus of the GAL4 DNA binding domain.

ERRβ (GAL-L-ERRb) = target: T1, ERRβ (GAL-L-ERRb) (Homo sapiens, UniProt O95718); assay: MH100x4 luciferase reporter with GAL-L-ERRb; design: Reporter Activity: unit not given here; settings: for inhibition of the activity of ERRβ: result in words
T1 construct: expressed in transfected cells
T1 sequence (O95718 208-432 limits assumed): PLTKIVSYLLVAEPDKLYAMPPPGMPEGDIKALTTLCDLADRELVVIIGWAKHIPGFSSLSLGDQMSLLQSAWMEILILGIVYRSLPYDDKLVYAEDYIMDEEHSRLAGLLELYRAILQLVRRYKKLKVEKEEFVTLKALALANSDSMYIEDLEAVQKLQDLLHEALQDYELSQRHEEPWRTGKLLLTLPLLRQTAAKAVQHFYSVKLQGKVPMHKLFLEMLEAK
Excerpt: as §1

ERRα (GAL-ERRa) = assay: MH100x4 luciferase reporter with GAL-ERRa; design: Reporter Activity: unit not given here
Excerpt: as §1

ERRγ (GAL-ERRg) = assay: MH100x4 luciferase reporter with GAL-ERRg; design: Reporter Activity: unit not given here; settings: for inhibition of the activity of ERRγ: result in words
Excerpt: as §1

ERE-TK-luc = ERE-TK-luc reporter without receptor, E2 100 nM
[1] = Table 4, DY39 dose head 0 (1st of 2), None 1
[2] = Table 4, DY39 dose head 0 (2nd of 2), None 1
[3] = Table 3, dose 2.5 (unit not given), None 2.2
[4] = Table 2, dose 5 (unit not given), None 0.49
[5] = Table 2, dose 5 (unit not given), None 1.00
[6] = Table 2, dose 5 (unit not given), None 1.44
[7] = Table 2, dose 5 (unit not given), None 8.54
[8] = Table 2, dose 5 (unit not given), None 1.25
[9] = Table 3, dose 2.5 (unit not given), None 1
[10] = Table 3, dose 2.5 (unit not given), None 2.38
[11] = Table 3, dose 2.5 (unit not given), None 8.18

SMILES: CN(C)CCOc1ccc(/C(=C(/CCCl)c2ccccc2)c2ccc(O)cc2)cc1 [DY33]
Reporter Activity (ERRγ (GAL-ERRg); [3]): 0.58

SMILES: C[C@]12CC[C@@H]3c4ccc(O)cc4CC[C@H]3[C@@H]1CC[C@@H]2O [E2, estradiol, reference compound]
Reporter Activity (ERE-TK-luc): 1.13
Reporter Activity (ERE-TK-luc; Table 6, E2 100 nM alone (no dose head), None 1.44): 1.2

SMILES: C=CCOc1ccc(C(CC)=C(CC)c2ccc(O)c(CC=C)c2)cc1 [DY21]
Reporter Activity (MH100x4; [4]): 0.31
Fold Activation (MH100x4; [5]): 0.63
Fold Activation (ERRβ (GAL-L-ERRb); [5]): 0.45
Reporter Activity (ERRβ (GAL-L-ERRb); [6]): 0.65
Fold Activation (ERRα (GAL-ERRa); [5]): 0.51
Reporter Activity (ERRα (GAL-ERRa); [7]): 4.34
Fold Activation (ERRγ (GAL-ERRg); [5]): 0.57
Reporter Activity (ERRγ (GAL-ERRg); [8]): 0.71

SMILES: C=CCOc1ccc(C(CC)=C(CC)c2ccc(OCC=C)cc2)cc1 [DY20]
Reporter Activity (MH100x4; [4]): 0.35
Fold Activation (MH100x4; [5]): 0.71
Fold Activation (ERRβ (GAL-L-ERRb); [5]): 0.70
Reporter Activity (ERRβ (GAL-L-ERRb); [6]): 1.01
Fold Activation (ERRα (GAL-ERRa); [5]): 0.75
Reporter Activity (ERRα (GAL-ERRa); [7]): 6.39
Fold Activation (ERRγ (GAL-ERRg); [5]): 0.81
Reporter Activity (ERRγ (GAL-ERRg); [8]): 1.01

Continued, in another order:

Fold Activation (MH100x4; [1]): 1.08
Reporter Activity (MH100x4; Table 4, DY39 dose head 0 (1st of 2), None 1.14): 1.23
Fold Activation (MH100x4; [2]): 0.89
Reporter Activity (MH100x4; Table 4, DY39 dose head 0 (2nd of 2), None 1.14): 1.02
Fold Activation (MH100x4; Table 4, dose 0.1 (unit not given), None 1/1.03): 0.96
Reporter Activity (MH100x4; Table 4, dose 0.1 (unit not given), None 1.14/1.17): 1.1
Fold Activation (MH100x4; Table 4, dose 0.3 (unit not given), None 1/1.03): 0.96
Reporter Activity (MH100x4; Table 4, dose 0.3 (unit not given), None 1.14/1.17): 1.09
Fold Activation (MH100x4; Table 4, dose 1 (unit not given), None 1/1.03): 0.8
Reporter Activity (MH100x4; Table 4, dose 1 (unit not given), None 1.14/1.17): 0.9
Fold Activation (MH100x4; Table 4, dose 3 (unit not given), None 1/1.03): 0.73
Reporter Activity (MH100x4; Table 4, dose 3 (unit not given), None 1.14/1.17): 0.83
Fold Activation (ERRβ (GAL-L-ERRb); [1]): 1.25
Reporter Activity (ERRβ (GAL-L-ERRb); Table 4, DY39 dose head 0 (1st of 2), None 7.21): 9.02
Fold Activation (ERRβ (GAL-L-ERRb); [2]): 1.04
Reporter Activity (ERRβ (GAL-L-ERRb); Table 4, DY39 dose head 0 (2nd of 2), None 7.21): 7.53
Fold Activation (ERRβ (GAL-L-ERRb); Table 4, dose 0.1 (unit not given), None 1/1.2): 1.2
Reporter Activity (ERRβ (GAL-L-ERRb); Table 4, dose 0.1 (unit not given), None 7.21/8.67): 8.63
Fold Activation (ERRβ (GAL-L-ERRb); Table 4, dose 0.3 (unit not given), None 1/1.2): 0.95
Reporter Activity (ERRβ (GAL-L-ERRb); Table 4, dose 0.3 (unit not given), None 7.21/8.67): 6.84
Fold Activation (ERRβ (GAL-L-ERRb); Table 4, dose 1 (unit not given), None 1/1.2): 0.4
Reporter Activity (ERRβ (GAL-L-ERRb); Table 4, dose 1 (unit not given), None 7.21/8.67): 2.9
Fold Activation (ERRβ (GAL-L-ERRb); Table 4, dose 3 (unit not given), None 1/1.2): 0.28
Reporter Activity (ERRβ (GAL-L-ERRb); Table 4, dose 3 (unit not given), None 7.21/8.67): 1.99
inhibition of the activity of ERRβ (ERRβ (GAL-L-ERRb)): inhibit the activity
Fold Activation (ERRα (GAL-ERRa); [1]): 1.09
Reporter Activity (ERRα (GAL-ERRa); Table 4, DY39 dose head 0 (1st of 2), None 27.7): 30.2
Fold Activation (ERRα (GAL-ERRa); [2]): 0.95
Reporter Activity (ERRα (GAL-ERRa); Table 4, DY39 dose head 0 (2nd of 2), None 27.7): 26.4
Fold Activation (ERRα (GAL-ERRa); Table 4, dose 0.1 (unit not given), None 1/1.23): 1.08
Reporter Activity (ERRα (GAL-ERRa); Table 4, dose 0.1 (unit not given), None 27.7/34.05): 30
Fold Activation (ERRα (GAL-ERRa); Table 4, dose 0.3 (unit not given), None 1/1.23): 1.09
Reporter Activity (ERRα (GAL-ERRa); Table 4, dose 0.3 (unit not given), None 27.7/34.05): 30.1
Fold Activation (ERRα (GAL-ERRa); Table 4, dose 1 (unit not given), None 1/1.23): 1.2
Reporter Activity (ERRα (GAL-ERRa); Table 4, dose 1 (unit not given), None 27.7/34.05): 33
Fold Activation (ERRα (GAL-ERRa); Table 4, dose 3 (unit not given), None 1/1.23): 1.31
Reporter Activity (ERRα (GAL-ERRa); Table 4, dose 3 (unit not given), None 27.7/34.05): 36.2
Fold Activation (ERRγ (GAL-ERRg); [1]): 0.94
Reporter Activity (ERRγ (GAL-ERRg); Table 4, DY39 dose head 0 (1st of 2), None 5.49): 5.14
Fold Activation (ERRγ (GAL-ERRg); [2]): 0.96
Reporter Activity (ERRγ (GAL-ERRg); Table 4, DY39 dose head 0 (2nd of 2), None 5.49): 5.25
Fold Activation (ERRγ (GAL-ERRg); Table 4, dose 0.1 (unit not given), None 1/1.01): 0.94
Reporter Activity (ERRγ (GAL-ERRg); Table 4, dose 0.1 (unit not given), None 5.49/5.56): 5.18
Fold Activation (ERRγ (GAL-ERRg); Table 4, dose 0.3 (unit not given), None 1/1.01): 0.91
Reporter Activity (ERRγ (GAL-ERRg); Table 4, dose 0.3 (unit not given), None 5.49/5.56): 4.97
Fold Activation (ERRγ (GAL-ERRg); Table 4, dose 1 (unit not given), None 1/1.01): 0.5
Reporter Activity (ERRγ (GAL-ERRg); Table 4, dose 1 (unit not given), None 5.49/5.56): 2.7
Fold Activation (ERRγ (GAL-ERRg); Table 4, dose 3 (unit not given), None 1/1.01): 0.3
Reporter Activity (ERRγ (GAL-ERRg); Table 4, dose 3 (unit not given), None 5.49/5.56): 1.67
inhibition of the activity of ERRγ (ERRγ (GAL-ERRg)): inhibit the activity
SMILES: CC(C)CC(=C(c1ccc(O)cc1)c1ccc(OCCN(C)C)cc1)c1ccccc1 (mixture of isomers) [DY39]

Fold Activation (ERRβ (GAL-L-ERRb); [9]): 0.14
Reporter Activity (ERRβ (GAL-L-ERRb); [10]): 0.34
inhibition of the activity of ERRβ (ERRβ (GAL-L-ERRb)): inhibit the activity
inhibition of the activity of ERRγ (ERRγ (GAL-ERRg)): inhibit the activity
SMILES: CC(C)/C(=C(\c1ccc(O)cc1)c1ccc(OCN(C)C)cc1)c1ccccc1 [DY35, (Z)-4-[1-(4-Dimethylaminomethoxy-phenyl)-3-methyl-2-phenyl-but-1-enyl]-phenol]
Fold Activation (ERRα (GAL-ERRa); [9]): 0.78
Reporter Activity (ERRα (GAL-ERRa); [11]): 6.38
Fold Activation (ERRγ (GAL-ERRg); [9]): 0.15
Reporter Activity (ERRγ (GAL-ERRg); [3]): 0.34

Fold Activation (ERRβ (GAL-L-ERRb); [9]): 0.08
Reporter Activity (ERRβ (GAL-L-ERRb); [10]): 0.2
inhibition of the activity of ERRβ (ERRβ (GAL-L-ERRb)): inhibit the activity
inhibition of the activity of ERRγ (ERRγ (GAL-ERRg)): inhibit the activity
SMILES: CC/C(=C(/c1ccc(OCCN(C)C)cc1)c1ccc(OC(C)=O)cc1)c1ccccc1 [DY28, (E,Z)-4-{1-[4-(2-dimethylamino-ethoxy)-phenyl]-2-phenyl-but-1-enyl}-phenyl acetate]
Fold Activation (ERRα (GAL-ERRa); [9]): 0.99
Reporter Activity (ERRα (GAL-ERRa); [11]): 8.08
Fold Activation (ERRγ (GAL-ERRg); [9]): 0.11
Reporter Activity (ERRγ (GAL-ERRg); [3]): 0.25

Reporter Activity (MH100x4; [4]): 0.35
Fold Activation (MH100x4; [5]): 0.71
Fold Activation (ERRβ (GAL-L-ERRb); [5]): 0.49
Reporter Activity (ERRβ (GAL-L-ERRb); [6]): 0.71
Fold Activation (ERRα (GAL-ERRa); [5]): 0.66
Reporter Activity (ERRα (GAL-ERRa); [7]): 5.63
Fold Activation (ERRγ (GAL-ERRg); [5]): 0.91
Reporter Activity (ERRγ (GAL-ERRg); [8]): 1.14
SMILES: CCC(=C(CC)c1ccc(O)c(C=C(C)C)c1)c1ccc(O)cc1 [DY16]
